The source of these data is patent US20260356856A1, “KRAS G12S AND G12C INHIBITORS” (MIRATI THERAPEUTICS, INC., priority 2023, published 2026).

SMILES strings stand for the structures.

One assay addresses T1, KRas G12C (Homo sapiens, UniProt P01116, G12C).
T1 construct: Biotinylated KRas (corresponding to amino acids 1-169, produced at Accelegan Inc.); biotin (biotinylated); purchased Accelegan Inc
Briefly: KRas binding assay, TR-FRET displacement of Cy5 labelled tracer. The conditions noted are these: 60-minute incubation at room temperature, 1% DMSO, pH 7.5. A digest of the protocol:
(§1)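 Displacement measured on KRas residues 1-169 (biotinylated, terbium-streptavidin labelled); 1 h, RT; 1% DMSO final; HEPES pH 7.5 / MgCl2 / Tween-20 / DTT. IC50: 4-parameter fit.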
(In TR-FRET formats the signal depends on donor and acceptor labels being close together.)

A further assay deals with T2, KRas G12S (Homo sapiens, UniProt P01116, G12S).
T2 construct: Biotinylated KRas (corresponding to amino acids 1-169, produced at Accelegan Inc.); biotin (biotinylated); purchased Accelegan Inc
The description is as above. Conditions: 60-minute incubation at room temperature, 1% DMSO, pH 7.5. The method, boiled down: as §1

In a further assay the target is T3, KRas WT (Homo sapiens, UniProt P01116).
T3 construct: Biotinylated KRas (corresponding to amino acids 1-169, produced at Accelegan Inc.); biotin (biotinylated); purchased Accelegan Inc
Described as above. The conditions noted are these: 60-minute incubation at room temperature, 1% DMSO, pH 7.5. A digest of the protocol:
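Assay buffer was HEPES (50 mM, pH 7.5) with MgCl2 (5 mM), DTT (1 mM) and Tween-20 (0.005%). Biotinylated KRas spanning residues 1-169 met tracer, terbium streptavidin and compound (1% DMSO, final) for 60 minutes at ambient temperature before reading. POC values were fitted for IC50.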

Assay [1] addresses T4, KRas-mediated phosphorylation of ERK in MKN1 cells (Homo sapiens, UniProt P01116).
T4 construct: pERK HTRF read-out
Briefly: Inhibition of KRas-mediated phosphorylation of ERK (HTRF), MKN1 cells. It is filed as cell-based. Conditions: MKN1 cells (KRas WT); HTRF pERK; 3 h incubation. The method, then:
Inhibition of KRas Phosphorylation of ERK (HTRF) by Exemplary Compounds of Formula (Ia) or (Ib)
Cisbio HTRF Advanced pERK Assay Catalog #64AERPEH • Cells: MKN1, PSN1 • Procedure: • 1. Day 1: Seed 6,000 cells/well −25 μl/well in 384-well white solid bottom plate; RPM1_10% FBS. Incubate overnight at 37 °C/5% CO2. • 2.

The target in assay [2] is T5, KRas-mediated phosphorylation of ERK in A549 cells (Homo sapiens, UniProt P01116, G12S).
T5 construct: pERK HTRF read-out
The assay is described as follows: Inhibition of KRas-mediated phosphorylation of ERK (HTRF), A549 cells. Conditions: HTRF pERK, 3 h incubation. It is filed as cell-based.

T3 sequence (P01116 1-169 isoform P01116-2): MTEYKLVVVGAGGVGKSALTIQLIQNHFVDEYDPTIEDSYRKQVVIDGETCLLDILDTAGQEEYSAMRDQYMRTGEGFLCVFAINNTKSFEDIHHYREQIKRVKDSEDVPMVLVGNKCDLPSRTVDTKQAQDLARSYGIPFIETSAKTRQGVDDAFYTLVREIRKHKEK
T5 sequence (P01116 1-188 isoform P01116-2 G12S): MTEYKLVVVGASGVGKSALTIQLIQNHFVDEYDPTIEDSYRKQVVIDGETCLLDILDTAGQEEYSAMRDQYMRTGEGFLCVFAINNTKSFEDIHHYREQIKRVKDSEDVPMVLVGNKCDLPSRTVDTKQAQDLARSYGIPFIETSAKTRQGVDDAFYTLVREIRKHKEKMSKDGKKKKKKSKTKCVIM
T4 sequence (P01116 1-188 isoform P01116-2): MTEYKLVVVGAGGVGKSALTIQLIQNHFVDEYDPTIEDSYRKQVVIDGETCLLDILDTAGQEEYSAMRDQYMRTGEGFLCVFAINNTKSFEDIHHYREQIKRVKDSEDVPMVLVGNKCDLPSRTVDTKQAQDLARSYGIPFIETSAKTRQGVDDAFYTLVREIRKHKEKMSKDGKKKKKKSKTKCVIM
T2 sequence (P01116 1-169 isoform P01116-2 G12S): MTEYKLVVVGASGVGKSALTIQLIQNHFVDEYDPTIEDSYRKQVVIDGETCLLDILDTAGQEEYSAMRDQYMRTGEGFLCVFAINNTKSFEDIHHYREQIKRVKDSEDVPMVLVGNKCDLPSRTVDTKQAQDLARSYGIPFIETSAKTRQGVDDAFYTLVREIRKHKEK
T1 sequence (P01116 1-169 isoform P01116-2 G12C): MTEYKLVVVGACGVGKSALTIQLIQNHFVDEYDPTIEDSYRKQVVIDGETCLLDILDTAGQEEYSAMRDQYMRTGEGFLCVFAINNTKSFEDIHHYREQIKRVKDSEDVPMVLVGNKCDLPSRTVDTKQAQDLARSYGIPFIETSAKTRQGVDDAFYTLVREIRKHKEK

For the compound `CCc1c(F)ccc2cc(O)cc(-c3ncc4c(N5CC6CCC(C(=O)n7ccc(C)n7)C6C5)nc(OC[C@@]56CCCN5C[C@H](F)C6)nc4c3F)c12` (stereo partly drawn) [Example 104, (2-(7-(8-ethyl-7-fluoro-3-hydroxynaphthalen-1-yl)-8-fluoro-2-(((2R,7aS)-2-fluorotetrahydro-1H-pyrrolizin-7a(5H)-yl)methoxy)pyrido[4,3-d]pyrimidin-4-yl)octahydrocyclopenta[c]pyrrol-4-yl)(3-methyl-1H-pyrazol-1-yl)methanone], the IC50 is 295 nM at KRas G12C; 176 nM on KRas G12S; 77 nM on KRas WT; 931 nM in assay [1]; 1580 nM in assay [2].
With `CCc1c(F)ccc2cc(O)cc(-c3ncc4c(N5C[C@H]6CC[C@@]6(C(=O)n6ccc(C)n6)C5)nc(OC[C@@]56CCCN5C[C@H](F)C6)nc4c3F)c12` [Example 105, ((1S,5S)-3-(7-(8-ethyl-7-fluoro-3-hydroxynaphthalen-1-yl)-8-fluoro-2-(((2R,7aS)-2-fluorotetrahydro-1H-pyrrolizin-7a(5H)-yl)methoxy)pyrido[4,3-d]pyrimidin-4-yl)-3-azabicyclo[3.2.0]heptan-1-yl)(3-methyl-1H-pyrazol-1-yl)methanone], the IC50 is 35 nM at KRas G12C; 50 nM on KRas G12S; 58 nM on KRas WT; 517 nM in assay [1]; greater than 10000 nM in assay [2].
Taken in the same sequence, the figures for `CCc1c(F)ccc2cc(O)cc(-c3ncc4c(N5CC6CCC(C(=O)n7ccc(C)n7)(C6)C5)nc(OC[C@@]56CCCN5C[C@H](F)C6)nc4c3F)c12` (stereo partly drawn) [Example 106, (3-(7-(8-ethyl-7-fluoro-3-hydroxynaphthalen-1-yl)-8-fluoro-2-(((2R,7aS)-2-fluorotetrahydro-1H-pyrrolizin-7a(5H)-yl)methoxy)pyrido[4,3-d]pyrimidin-4-yl)-3-azabicyclo[3.2.1]octan-1-yl)(3-methyl-1H-pyrazol-1-yl)methanone] were 22 nM, 14 nM, 40 nM, 529 nM and 584 nM.
Turning to `C=CC1(C(=O)n2ccc(C)n2)CCN(c2nc(OC[C@@]34CCCN3C[C@H](F)C4)nc3c(F)c(-c4cc(O)cc5ccc(F)c(CC)c45)ncc23)C1` (stereo partly drawn) [Example 107, (1-(7-(8-ethyl-7-fluoro-3-hydroxynaphthalen-1-yl)-8-fluoro-2-(((2R,7aS)-2-fluorotetrahydro-1H-pyrrolizin-7a(5H)-yl)methoxy)pyrido[4,3-d]pyrimidin-4-yl)-3-vinylpyrrolidin-3-yl)(3-methyl-1H-pyrazol-1-yl)methanone], the IC50 at KRas G12C was 37 nM; at KRas G12S, 513 nM; on KRas WT, 1060 nM; in assay [1], greater than 10000 nM; in assay [2] it was 2070 nM.
For `C#CCC1(C(=O)n2ccc(C)n2)CCN(c2nc(OC[C@@]34CCCN3C[C@H](F)C4)nc3c(F)c(-c4cc(O)cc5ccc(F)c(CC)c45)ncc23)C1` (stereo partly drawn) [Example 108, (1-(7-(8-ethyl-7-fluoro-3-hydroxynaphthalen-1-yl)-8-fluoro-2-(((2R,7aS)-2-fluorotetrahydro-1H-pyrrolizin-7a(5H)-yl)methoxy)pyrido[4,3-d]pyrimidin-4-yl)-3-(prop-2-yn-1-yl)pyrrolidin-3-yl)(3-methyl-1H-pyrazol-1-yl)methanone], the IC50 at KRas G12C is 339 nM; at KRas G12S it was 1320 nM; at KRas WT, 1040 nM; in assay [1], greater than 10000 nM; in assay [2] it was 2000 nM.
Taken in the same sequence, the figures for `CCc1c(F)ccc2cc(O)cc(-c3ncc4c(NC[C@@H]5[C@H](C(=O)n6ccc(C)n6)C5(C)C)nc(OC[C@@]56CCCN5C[C@H](F)C6)nc4c3F)c12` [Example 109, ((1S,3R)-3-(((7-(8-ethyl-7-fluoro-3-hydroxynaphthalen-1-yl)-8-fluoro-2-(((2R,7aS)-2-fluorotetrahydro-1H-pyrrolizin-7a(5H)-yl)methoxy)pyrido[4,3-d]pyrimidin-4-yl)amino)methyl)-2,2-dimethylcyclopropyl)(3-methyl-1H-pyrazol-1-yl)methanone] were 134 nM, 99 nM, 73 nM, 316 nM and 1920 nM.
For `CCc1c(F)ccc2cc(O)cc(-c3ncc4c(NCCCC(=O)n5ccc(C)n5)nc(OC[C@@]56CCCN5C[C@H](F)C6)nc4c3F)c12` [Example 111, 4-((7-(8-ethyl-7-fluoro-3-hydroxynaphthalen-1-yl)-8-fluoro-2-(((2R,7aS)-2-fluorotetrahydro-1H-pyrrolizin-7a(5H)-yl)methoxy)pyrido[4,3-d]pyrimidin-4-yl)amino)-1-(3-methyl-1H-pyrazol-1-yl) butan-1-one] the same measures were less than 2 nM, 3 nM, 13 nM, 219 nM and 16 nM.
For `CCc1c(F)ccc2cc(O)cc(-c3ncc4c(NC[C@@H]5C[C@H]5C(=O)n5ccc(C)n5)nc(OC[C@@]56CCCN5C[C@H](F)C6)nc4c3F)c12` [Example 112, ((1R,2R)-2-(((7-(8-ethyl-7-fluoro-3-hydroxynaphthalen-1-yl)-8-fluoro-2-(((2R,7aS)-2-fluorotetrahydro-1H-pyrrolizin-7a(5H)-yl)methoxy)pyrido[4,3-d]pyrimidin-4-yl)amino)methyl)cyclopropyl)(3-methyl-1H-pyrazol-1-yl)methanone], the IC50 on KRas G12C was determined as 11 nM; on KRas G12S it was 9 nM; on KRas WT, 19 nM; in assay [1], 80 nM; in assay [2], 15 nM.
Regarding `CCc1c(F)ccc2cc(O)cc(-c3ncc4c(N5CCC(CC(=O)n6ccc(C)n6)C5)nc(OC[C@@]56CCCN5C[C@H](F)C6)nc4c3F)c12` (stereo partly drawn) [Example 113, 2-(1-(7-(8-ethyl-7-fluoro-3-hydroxynaphthalen-1-yl)-8-fluoro-2-(((2R,7aS)-2-fluorotetrahydro-1H-pyrrolizin-7a(5H)-yl)methoxy)pyrido[4,3-d]pyrimidin-4-yl)pyrrolidin-3-yl)-1-(3-methyl-1H-pyrazol-1-yl) ethan-1-one], the IC50 came out at 137 nM at KRas G12C; 31 nM at KRas G12S; 78 nM at KRas WT; 3150 nM in assay [1]; 110 nM in assay [2].
`CCc1c(F)ccc2cc(O)cc(-c3ncc4c(N5C[C@@H]6[C@H](C5)[C@@H]6C(=O)n5ccc(C)n5)nc(OC[C@@]56CCCN5C[C@H](F)C6)nc4c3F)c12` [Example 114, ((1R,5S,6R)-3-(7-(8-ethyl-7-fluoro-3-hydroxynaphthalen-1-yl)-8-fluoro-2-(((2R,7aS)-2-fluorotetrahydro-1H-pyrrolizin-7a(5H)-yl)methoxy)pyrido[4,3-d]pyrimidin-4-yl)-3-azabicyclo[3.1.0]hexan-6-yl)(3-methyl-1H-pyrazol-1-yl)methanone]: the IC50 on KRas G12C is 776 nM; on KRas G12S it was 664 nM; at KRas WT, 1180 nM; in assay [1] it was 7830 nM; in assay [2], greater than 10000 nM.
Consider `CCc1c(F)ccc2cc(O)cc(-c3ncc4c(N5C[C@H]6CC(C(=O)n7ccc(C)n7)C[C@@H]6C5)nc(OC[C@@]56CCCN5C[C@H](F)C6)nc4c3F)c12` [Example 115, ((3aS,6aS)-2-(7-(8-ethyl-7-fluoro-3-hydroxynaphthalen-1-yl)-8-fluoro-2-(((2R,7aS)-2-fluorotetrahydro-1H-pyrrolizin-7a(5H)-yl)methoxy)pyrido[4,3-d]pyrimidin-4-yl)octahydrocyclopenta[c]pyrrol-5-yl)(3-methyl-1H-pyrazol-1-yl)methanone], for which the IC50 on KRas G12C was 4120 nM; on KRas G12S, 1800 nM; at KRas WT, 260 nM; in assay [1] it was 2670 nM; in assay [2], greater than 10000 nM.
On to `CCc1c(F)ccc2cc(O)cc(-c3ncc4c(N5C[C@H]6CC(C(=O)n7ccc(C)n7)C[C@H]6C5)nc(OC[C@@]56CCCN5C[C@H](F)C6)nc4c3F)c12` (stereo partly drawn) [Example 116, ((3aR,6aS)-2-(7-(8-ethyl-7-fluoro-3-hydroxynaphthalen-1-yl)-8-fluoro-2-(((2R,7aS)-2-fluorotetrahydro-1H-pyrrolizin-7a(5H)-yl)methoxy)pyrido[4,3-d]pyrimidin-4-yl)octahydrocyclopenta[c]pyrrol-5-yl)(3-methyl-1H-pyrazol-1-yl)methanone], for which the IC50 at KRas G12C came to 111 nM; on KRas G12S it was 11 nM; at KRas WT, 3480 nM; in assay [1], 4440 nM; in assay [2], 35 nM.

A word on the IC50: it is the point on the concentration scale where inhibition reaches its midpoint.
